In article PMC11940194, “Synthesis, Antiproliferative Activity, and ADME Profiling of Novel Racemic and Optically Pure Aryl-Substituted Purines and Purine Bioisosteres” (Biomolecules, 2025):

What was measured:
[1] = system: P-glycoprotein (human MDR1); experiment: MDCKII-MDR1 permeability assay; type: in vitro ADME, canine cells with over-expressed human MDR1 gene; settings: dog, MDCK-MDR1; for Papp A→B at 60 min, 10 µM / Papp B→A at 60 min, 10 µM: 37 °C; for efflux ratio at 60 min, 10 µM: <2 no efflux, >2 active efflux
Procedure, shortened: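 Bidirectional transport across MDCKII cells overexpressing human MDR1, compounds 10 µM (1% DMSO) for 60 min at 37 °C, with and without 2 µM elacridar. Monolayer integrity checked by Lucifer yellow; compound concentrations quantified by LC-MS/MS (MRM).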

[2] = system: hepatocellular carcinoma (HepG2) cells; experiment: Antiproliferative MTT assay, HepG2; type: cell-based, human; settings: for IC50: Homo sapiens, HepG2, 72 h, 72 h incubation, MTT, mean ± SD
Procedure, shortened: (§1)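 Seeding density followed doubling time: 3000 cells per well for the cancer lines, 5000 for normal fibroblasts. Test substances, freshly diluted from 0.01 to 100 µM, were incubated with the cells for 72 h before MTT measurement of growth rate. IC50 values came from linear regression of dose–response curves.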

[3] = system: normal skin fibroblasts (HFF-1); experiment: Cytotoxicity MTT assay, normal skin fibroblasts; type: cell-based, human; settings: Homo sapiens, HFF-1, 72 h, 72 h incubation, mean ± SD
Procedure, shortened: as §1

[4] = system: pancreatic ductal adenocarcinoma (CFPAC-1) cells; experiment: Antiproliferative MTT assay, CFPAC-1; type: cell-based, human; settings: for IC50: 72 h incubation, MTT, mean ± SD
Procedure, shortened: as §1

[5] = Hydrolytic stability in aqueous buffer (UV/Vis); type: physicochemical; settings: phosphate buffer/DMSO 99:1, pH 7.4, 1 × 10⁻⁴ mol dm⁻³, UV/Vis spectra over 24 h
Description: Solvents and chemicals, including starting purines and purine bioisosters 1–5, as well as para-substituted 2-phenyloxiranes 11–15 and phenacyl bromide 21–25, were purchased from Sigma-Aldrich (St. Louis, MO, USA), Alfa Aesar (Haverhill, MA, USA), and Fisher Scientific International (Pittsburgh, PA, USA). The progress of all reactions was monitored by thin layer chromatography on pre-coated Merck (Darmstadt, Germany) silica gel plates 60F254. The synthesized compounds were purified via column chromatography using Fluka (Buchs, Switzerland) silica gel (0.063−0.2 mm) and the appropriate solvent. All NMR spectra were recorded using a Bruker 300, 400, and 600 MHz NMR spectrometer (Bruker Biospin, Rheinstetten, Germany) in deuterated DMSO solutions, with TMS as the internal standard. The melting points of all newly synthesized compounds were determined using a Koffler (Reichert, Vienna) hot stage microscope. The ^1H (δ/ppm) and ^13C NMR (δ/ppm) spectra of compounds 26a,b–49a,b can be found in the Supporting Information (Figures S1–S48). The purity of all newly synthesized compounds was determined by elemental analysis and the elemental analysis results are within 0.5% of the theoretical values. The UV/Vis absorption spectra of compounds 40a, 45a, and 49b were measured at a concentration of 1 × 10⁻⁴ mol dm⁻³ in phosphate buffer and DMSO (99:1, v/v) at pH 7.4 using a Varian Cary 50 spectrophotometer in double-beam mode at 25 °C.
Selected 6-chloropurine (40a), 4-chloropyrrolo[2,3-d]pyrimidine (45a), and 4-chloroimidazo[4,5-c]pyridine (49b) with significant antiproliferative activity were examined for hydrolytic stability in an aqueous buffer solution.
2. UV/Vis absorption spectra of selected compounds
Figure S49. UV/Vis absorption spectra of compounds 40a (a), 45a (b), and 49b (c) recorded in phosphate buffer with 1% DMSO (99:1, v/v) at pH 7.4 (c = 1 × 10⁻⁴ mol dm⁻³). Spectra were measured immediately after sample preparation and after 24 hours to evaluate spectral stability over time.
(1 picture or pasted object on this page, not shown here)

| Papp A→B at 60 min, 10 µM [1] | Papp B→A at 60 min, 10 µM [1] | efflux ratio at 60 min, 10 µM [1] | IC50 [2] | IC50 [4] | IC50 ([4]; Homo sapiens, CFPAC-1, 72 h) | hydrolytic stability [5] | Papp at 60 min, 10 µM ([1]; permeability class) | SMILES | IC50 [3] | SI (CFPAC-1) ([4]; SI = [IC50 HFF]/[IC50 CFPAC-1]) | SI (HepG2) ([2]; SI = [IC50 HFF]/[IC50 HepG2]) |
| --- | --- | --- | --- | --- | --- | --- | --- | --- | --- | --- | --- |
| 7.6 ×10⁻⁶ cm/s | 66.4 ×10⁻⁶ cm/s | 8.8 | 28 ± 0.5 µM | 1 ± 0.7 µM | 1 to 8 µM | hydrolytically stable | – | OCC(c1ccc(C(F)(F)F)cc1)n1cc(Cn2ccc3c(Cl)ncnc32)nn1 (stereo not drawn) [Compound 45a, 4-Chloro-7-((1-(2-hydroxy-1-(4-(trifluoromethyl)phenyl)ethyl)-1H-1,2,3-triazol-4-yl)methyl)-7H-pyrrolo[2,3-d]pyrimidine] | 20 ± 4.7 µM | 20.0 | – |
| ≤ 2 ×10⁻⁶ cm/s | 36.9 ×10⁻⁶ cm/s | 23.3 | 4 µM | – | 21 ± 0.7 µM | hydrolytically stable | ≤ 2 ×10⁻⁶ cm/s | OC(Cn1cc(Cn2cnc3c(Cl)nccc32)nn1)c1ccc(Br)cc1 (stereo not drawn) [Compound 49b, 4-Chloro-1-((1-(2-hydroxy-2-(4-bromophenyl)ethyl)-1H-1,2,3-triazol-4-yl)methyl)-1H-imidazo[4,5-c]pyridine] | 21 ± 5.8 µM | – | 5.3 |
